From ChEMBL document CHEMBL1201862, “PubChem BioAssay data set” (2004)
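Grown in 96-well plates, cells were treated for 48 hours with each compound at five concentrations. Insufficient inhibition: endpoint recorded as highest concentration tested. GI50: concentration for 50% inhibition of growth.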 Active and inactive are the calls of the source. No stated cut-off is given here; in the data, active = GI50 up to about 1.1 µM and inactive = higher.

Columns and labels:
Assay in all cases: NCI anticancer screen, dose series, 48 h
HCT-15 = system: HCT-15
HT-29 = system: HT-29
SN12C = system: SN12C
NCI-H226 = system: NCI-H226
MCF7 = system: MCF7
NCI/ADR-RES = system: NCI/ADR-RES
COLO 205 = system: COLO 205
SK-MEL-5 = system: SK-MEL-5
SK-OV-3 = system: SK-OV-3
M14 = system: M14
A549 = system: A549
U-251 = system: U-251
HOP-92 = system: HOP-92
NCI-H522 = system: NCI-H522
Hs-578T = system: Hs-578T
HCC 2998 = system: HCC 2998
HL-60 = system: HL-60
RPMI-8226 = system: RPMI-8226
OVCAR-8 = system: OVCAR-8
SNB-75 = system: SNB-75

Measured: GI50

COc1ccc(C(C)NNC(=O)c2cc[n+]([BH2-]C#N)cc2)cc1F (stereo not given)
inactive: HT-29 > 100 µM | SN12C > 100 µM | NCI-H226 > 100 µM | MCF7 > 100 µM | NCI/ADR-RES > 100 µM | COLO 205 > 100 µM | SK-MEL-5 > 100 µM | SK-OV-3 > 100 µM | M14 > 100 µM | A549 > 100 µM | U-251 > 100 µM | HOP-92 > 100 µM | NCI-H522 > 100 µM | Hs-578T > 100 µM | HCC 2998 > 100 µM | HL-60 > 100 µM | RPMI-8226 > 100 µM | OVCAR-8 > 100 µM | SNB-75 > 100 µM
> 100 µM: HCT-15

O=C1CC(O)c2c(Br)sc(Br)c21 (stereo not given)
11.3 µM: HCT-15
inactive: HT-29 17.7 µM | SN12C 17.5 µM | MCF7 3.46 µM | NCI/ADR-RES 30.3 µM | COLO 205 13.2 µM | SK-MEL-5 17.7 µM | SK-OV-3 16.6 µM | M14 13.9 µM | A549 19.3 µM | U-251 4.54 µM | HOP-92 17.9 µM | NCI-H522 8.28 µM | Hs-578T 25.6 µM | HCC 2998 6 µM | HL-60 3.2 µM | RPMI-8226 2.47 µM | OVCAR-8 5.01 µM | SNB-75 16 µM

CC(C)CCCC(C)[C@H]1CC[C@H]2NCCCC[C@]12C (stereo not given in full)
2.43 µM: HCT-15
inactive: HT-29 2.34 µM | SN12C 6.24 µM | NCI-H226 9.14 µM | MCF7 2 µM | NCI/ADR-RES 6.71 µM | COLO 205 1.73 µM | SK-MEL-5 1.6 µM | SK-OV-3 14.3 µM | M14 2.1 µM | A549 6.64 µM | U-251 2.4 µM | HOP-92 3.48 µM | Hs-578T 6.82 µM | HCC 2998 1.37 µM | HL-60 1.93 µM | RPMI-8226 1.92 µM | OVCAR-8 3.03 µM | SNB-75 6.03 µM

CCC/C=C/C=C/C(=O)OC1C(C)C2(O)C3C=C(C)C(=O)C3CC(COC(C)=O)=CC2C2C(C)(C)C12OC(=O)C(C)C (stereo not given)
inactive: HT-29 12.1 µM | SN12C 11 µM | NCI-H226 15.8 µM | MCF7 17.2 µM | NCI/ADR-RES 21.5 µM | SK-MEL-5 1.84 µM | SK-OV-3 53.1 µM | M14 14.1 µM | HOP-92 8.81 µM | NCI-H522 13.4 µM | RPMI-8226 11.8 µM | OVCAR-8 22.8 µM | SNB-75 10.3 µM
active: COLO 205 0.197 µM | A549 0.406 µM | Hs-578T 0.084 µM | HCC 2998 0.329 µM | HL-60 0.532 µM

Cc1c(C#N)c2nnn(-c3ccccc3)c(=O)n2c1-c1ccccc1
active: NCI/ADR-RES 1.12 µM | COLO 205 0.49 µM | SK-MEL-5 0.471 µM | M14 0.959 µM | HL-60 0.376 µM
1.85 µM: HCT-15
inactive: SN12C 4.65 µM | NCI-H226 2.84 µM | MCF7 2.39 µM | SK-OV-3 1.41 µM | A549 1.29 µM | HOP-92 31.3 µM | Hs-578T 4.51 µM | HCC 2998 3.34 µM | RPMI-8226 1.24 µM | OVCAR-8 7.19 µM | SNB-75 2.95 µM

N#CC1=C(S)N(C2OC(CO)C(O)C(O)C2O)C(c2ccccc2)=CC1c1ccccc1 (stereo not given)
inactive: HT-29 48.9 µM | SN12C 72.4 µM | NCI-H226 36.2 µM | MCF7 43.1 µM | NCI/ADR-RES > 100 µM | COLO 205 44.2 µM | SK-MEL-5 19.8 µM | M14 37.5 µM | A549 > 100 µM | U-251 43 µM | HOP-92 31.8 µM | NCI-H522 50.6 µM | Hs-578T 41.5 µM | HCC 2998 18.5 µM | HL-60 40.9 µM | RPMI-8226 46.5 µM | OVCAR-8 45.3 µM | SNB-75 31.9 µM
18.8 µM: HCT-15

COC(=O)C(CCSC)NC(=O)CNC(=O)CSc1nnc(COc2ccc(Cl)cc2)n1-c1ccccc1 (stereo not given)
inactive: HT-29 17.7 µM | SN12C 18.4 µM | NCI-H226 18.8 µM | MCF7 17.9 µM | NCI/ADR-RES 82.2 µM | COLO 205 18.2 µM | SK-MEL-5 17.3 µM | SK-OV-3 18.1 µM | M14 19.5 µM | A549 41.3 µM | U-251 17.3 µM | HOP-92 17.6 µM | Hs-578T 22.3 µM | HCC 2998 14 µM | HL-60 19.3 µM | RPMI-8226 22.6 µM | SNB-75 19.1 µM
18.3 µM: HCT-15
